Assay results taken from patent publication US20170020890A1, “PHARMACEUTICAL COMPOSITION COMPRISING FATTY ACID DERIVATIVE” (SUCAMPO AG, priority 2015, published 2017).
Like-named read-outs stand apart in the source and are kept apart here. Peptide text beside a SMILES is read from it.

Assay: Solubility of sweetening agents in medium-chain triglycerides (MCT)
Description: 18 mg of neotame, 20 mg of saccharin, 1 mg of sodium saccharin or 5 mg of thaumatin was mixed with medium-chain triglycerides (MCT; USP/NF) to give the total weight of 180 g, 20 g, 100 g or 500 g respectively.
Solubility and sensory tests of sweetening agents were conducted. Specifically, 7.2 mg of neotame, 20 mg of saccharin or 5 mg of sucralose was mixed with medium-chain triglycerides (MCT; USP/NF) to give the total weight of 40 g, 20 g or 100 g, respectively. Additionally, 1 mg of a sweetening agent was mixed with medium-chain triglycerides (MCT; USP/NF) to give the total weight of its mixtures of 100 g. The sweetening agent was sodium saccharin, thaumatin, aspartame, acesulfame potassium, sucrose, glucose, fructose, lactose, D-sorbitol, or xylitol.

[1] = Example 5, medium-chain triglycerides (USP/NF)

Solubility in MCT [w/w %] | Solubility in MCT, in words | Compound | other results
<0.001 | – | COC(=O)[C@H](Cc1ccccc1)NC(=O)[C@@H](N)CC(=O)O [Aspartame, aspartame] (H-Asp-Phe-OMe) | –
<0.001 | – | CC1=CC(=O)NS(=O)(=O)O1 [Acesulfame potassium, acesulfame potassium] | –
<0.001 | – | OC[C@@H](O)[C@@H](O)[C@H](O)[C@@H](O)CO [D-Sorbitol, D-sorbitol] | –
0.1 | solved in MCT | O=C1NS(=O)(=O)c2ccccc21 [Saccharin, 2H-1λ^6,2-benzothiazol-1,1,3-trione] | Solubility to MCT: 0.1%

Second part, the compound before the results:

Compound | Solubility in MCT [w/w %] | Solubility in MCT, in words | other results
thaumatin | <0.001 | did not solve in MCT | Solubility to MCT: <0.001%
OC[C@H]1O[C@H](O[C@]2(CCl)O[C@H](CCl)[C@@H](O)[C@@H]2O)[C@H](O)[C@@H](O)[C@H]1Cl [Sucralose, 1,6-Dichloro-1,6-dideoxy-β-D-fructofuranosyl-4-chloro-4-deoxy-α-D-galactopyranoside] | 0.005 | solved in MCT | –
OC[C@H]1O[C@@](CO)(O[C@H]2O[C@H](CO)[C@@H](O)[C@H](O)[C@H]2O)[C@@H](O)[C@@H]1O [Sucrose, sucrose] | <0.001 | – | –
O=C(CO)[C@@H](O)[C@H](O)[C@H](O)CO [Fructose, fructose] | – | – | Solubility in MCT [1]: <0.001 w/w %
COC(=O)[C@H](Cc1ccccc1)NC(=O)[C@H](CC(=O)O)NCCC(C)(C)C [Neotame] | 0.018 | solved in MCT | Solubility to MCT: 0.01%
OC[C@@H](O)[C@H](O)[C@@H](O)CO [Xylitol, xylitol] | <0.001 | – | –
O=C1NS(=O)(=O)c2ccccc21.[Na] [Sodium saccharin, sodium saccharin] | – | – | Solubility to MCT (Example 1, medium-chain triglycerides (USP/NF)): <0.001%; Solubility in MCT [1]: <0.001 w/w %; Solubility in MCT, in words (Examples 1 and 5): did not solve in MCT
